Experimental data published in PMC7290285 (Viruses, 2020).
Like-named read-outs stand apart in the source and are kept apart here.

Test system: ecotropic pseudo-typed lentiviral particles (luciferase) in PM1-mCat1 cells
Assay: Luciferase-based viral integration assay using PM1-mCat1 cells
[1] = Human immunodeficiency virus 1, read-out: IC50 (in µM), viral integration assay

CCOc1ncccc1C(=O)OCc1nc(N)c2c(C)c(C)sc2n1 [T5776163, CCOC1=C(C=CC=N1)C(=O)OCC1=NC2=C(C(C)=C(C)S2)C(N)=N1]
IC50 [1]: 4.7 µM

CS(=O)(=O)c1ccc(NC(=O)CNc2ccccc2-c2ccccc2)cc1 [T5950416, CS(=O)(=O)C1=CC=C(NC(=O)CNC2=C(C=CC=C2)C2=CC=CC=C2)C=C1]
IC50 [1]: 2.08 µM

O=C(COc1ccccc1-c1ccccc1)NCC1CCCCC1 [T5339957, O=C(COC1=C(C=CC=C1)C1=CC=CC=C1)NCC1CCCCC1]
IC50 [1]: 6.88 µM

Cc1ccccc1NC(=O)CNc1ccccc1-c1ccccc1 [T5947021, CC1=C(NC(=O)CNC2=C(C=CC=C2)C2=CC=CC=C2)C=CC=C1]
IC50 [1]: 5.61 µM

O=c1c2ccccc2nc(CN2CCOCC2)n1Cc1nc(-c2ccc(F)cc2)cs1 [T5938605, FC1=CC=C(C=C1)C1=CSC(CN2C(CN3CCOCC3)=NC3=C(C=CC=C3)C2=O)=N1]
IC50 [1]: 8.71 µM

C=CCOC(=O)C1=C(C)NC(=S)NC1c1ccc(C(C)C)cc1 (stereo not drawn) [T6203208, CC(C)C1=CC=C(C=C1)C1NC(=S)NC(C)=C1C(=O)OCC=C]
IC50 [1]: 4.37 µM

CCNC(=O)COC(=O)c1c(C)c(-c2cccc(Cl)c2)nc2ccccc12 [T0516-3343, CCNC(=O)COC(=O)C1=C2C=CC=CC2=NC(=C1C)C1=CC(Cl)=CC=C1]
IC50 (read-out: IC50 (in µM), viral integration assay, Table S3, PM1-mCat1, dose-response hit profiling): 6.07 µM

O=C(CSc1nc2ccccc2c(=O)n1Cc1ccco1)N1CCN(c2ccccc2)CC1 [T5344625, O=C(CSC1=NC2=C(C=CC=C2)C(=O)N1CC1=CC=CO1)N1CCN(CC1)C1=CC=CC=C1]
IC50 [1]: 1.72 µM

CC(Nc1nc(CN2CCOCC2)nc2sc3c(c12)CCC3)c1cccc(Cl)c1 (stereo not drawn) [T5952126, CC(NC1=C2C3=C(CCC3)SC2=NC(CN2CCOCC2)=N1)C1=CC(Cl)=CC=C1]
IC50 [1]: 1.53 µM

O=S(=O)(c1ccc(Oc2ncnc3scc(-c4ccc(F)cc4)c23)cc1)N1CCOCC1 [T5413794, FC1=CC=C(C=C1)C1=CSC2=C1C(OC1=CC=C(C=C1)S(=O)(=O)N1CCOCC1)=NC=N2]
IC50 [1]: 6.91 µM

COc1ccccc1N1CCN(C(=O)c2cc(Cl)ccc2O)CC1 [T6328287, COC1=C(C=CC=C1)N1CCN(CC1)C(=O)C1=C(O)C=CC(Cl)=C1]
IC50 [1]: 3.89 µM

CCn1c(SCC(=O)Nc2ccccc2C#N)nc2ccsc2c1=O [T6068357, CCN1C(=O)C2=C(C=CS2)N=C1SCC(=O)NC1=C(C=CC=C1)C#N]
IC50 [1]: 1.49 µM

c1csc(-c2csc3nc(CN4CCOCC4)nc(NCC4CCCO4)c23)c1 (stereo not drawn) [T6061512, C(NC1=C2C(SC=C2C2=CC=CS2)=NC(CN2CCOCC2)=N1)C1CCCO1]
IC50 [1]: 6.48 µM

CCc1ccc(-c2csc(Cn3c(CN4CCOCC4)nc4ccccc4c3=O)n2)cc1 [T5938606, CCC1=CC=C(C=C1)C1=CSC(CN2C(CN3CCOCC3)=NC3=C(C=CC=C3)C2=O)=N1]
IC50 [1]: 5.91 µM

CCOc1ccc(C(=O)Nc2cc(C)ccc2F)cc1 [T5869032, CCOC1=CC=C(C=C1)C(=O)NC1=C(F)C=CC(C)=C1]
IC50 [1]: 1.1 µM

Cc1cnc2c(S(=O)(=O)N3CCN(Cc4ccc5c(c4)OCCO5)CC3)cccc2c1 [T6332191, CC1=CC2=C(N=C1)C(=CC=C2)S(=O)(=O)N1CCN(CC2=CC3=C(OCCO3)C=C2)CC1]
IC50 [1]: 1.42 µM

c1ccc(CNc2nc(CN3CCOCC3)nc3scc(-c4cccs4)c23)cc1 [T5605915, C(NC1=C2C(SC=C2C2=CC=CS2)=NC(CN2CCOCC2)=N1)C1=CC=CC=C1]
IC50 [1]: 4.67 µM

O=C(Nc1ccc2c(c1)OCCCO2)c1cccc(N2CCCC2=O)c1 [T5609721, O=C(NC1=CC2=C(OCCCO2)C=C1)C1=CC(=CC=C1)N1CCCC1=O]
IC50 [1]: 4.12 µM

O=C(Nc1ccc2c(c1)OCO2)c1cccc(N2CCCC2=O)c1 [T5821319, O=C(NC1=CC2=C(OCO2)C=C1)C1=CC(=CC=C1)N1CCCC1=O]
IC50 [1]: 1.58 µM

Cc1ccc(-n2nnnc2Sc2nnnn2-c2ccccc2)c(C)c1 [T5595439, CC1=CC(C)=C(C=C1)N1N=NN=C1SC1=NN=NN1C1=CC=CC=C1]
IC50 [1]: 2.98 µM

COc1ccc(CC(=O)Nc2ccc(OC)cc2)cc1 [T6053460, COC1=CC=C(CC(=O)NC2=CC=C(OC)C=C2)C=C1]
IC50 [1]: 6.46 µM

COc1ccc(N(Cc2ccccc2)S(=O)(=O)c2cccc(C(=O)NCc3ccncc3)c2)cc1 [T5435331, COC1=CC=C(C=C1)N(CC1=CC=CC=C1)S(=O)(=O)C1=CC(=CC=C1)C(=O)NCC1=CC=NC=C1]
IC50 [1]: 3.14 µM

O=C(Nc1ccccc1N1CCCC1)c1cc(S(=O)(=O)N2CCOCC2)ccc1F [T6382120, FC1=C(C=C(C=C1)S(=O)(=O)N1CCOCC1)C(=O)NC1=C(C=CC=C1)N1CCCC1]
IC50 [1]: 2.86 µM

c1ccc(-c2csc3nc(CN4CCOCC4)nc(NCCC4CCCO4)c23)cc1 (stereo not drawn) [T5948460, C(CC1CCCO1)NC1=C2C(SC=C2C2=CC=CC=C2)=NC(CN2CCOCC2)=N1]
IC50 [1]: 2.33 µM

O=C(Nc1ccccc1O)c1ccccc1Br [T6043692, OC1=C(NC(=O)C2=C(Br)C=CC=C2)C=CC=C1]
IC50 [1]: 4.11 µM

O=C(CSc1nnc(C2CC2)o1)NC(c1ccccc1)c1cccs1 (stereo not drawn) [T5964141, O=C(CSC1=NN=C(O1)C1CC1)NC(C1=CC=CS1)C1=CC=CC=C1]
IC50 [1]: 1.26 µM

CC(=O)c1ccccc1NC(=O)CNc1ccccc1-c1ccccc1 [T5989502, CC(=O)C1=C(NC(=O)CNC2=C(C=CC=C2)C2=CC=CC=C2)C=CC=C1]
IC50 [1]: 1.94 µM

Cc1cccc(C)c1NC(=O)CN1CCCC1c1nc2ccccc2s1 (stereo not drawn) [T5823772, CC1=CC=CC(C)=C1NC(=O)CN1CCCC1C1=NC2=C(S1)C=CC=C2]
IC50 [1]: 8.88 µM

c1csc(-c2csc3nc(CN4CCOCC4)nc(N4CCCC4)c23)c1 [T5587925, C(N1CCOCC1)C1=NC2=C(C(=CS2)C2=CC=CS2)C(=N1)N1CCCC1]
IC50 [1]: 3.97 µM

O=c1[nH]c(CSc2nnc(C3CC3)o2)nc2scc(-c3ccco3)c12 [T5983422, O=C1NC(CSC2=NN=C(O2)C2CC2)=NC2=C1C(=CS2)C1=CC=CO1]
IC50 [1]: 2.28 µM

c1csc(-c2csc3nc(CN4CCOCC4)nc(NN4CCCCC4)c23)c1 [T6026407, C(N1CCOCC1)C1=NC2=C(C(=CS2)C2=CC=CS2)C(NN2CCCCC2)=N1]
IC50 [1]: 2.73 µM

CN(C1CCCCC1)S(=O)(=O)c1cccc(C#N)c1 [T5339669, CN(C1CCCCC1)S(=O)(=O)C1=CC(=CC=C1)C#N]
IC50 [1]: 5.2 µM

COc1ccc(C2CCCN2C(=O)C2CC(=O)N(c3ccccc3F)C2)c(OC)c1 (stereo not drawn) [T6496714, COC1=CC(OC)=C(C=C1)C1CCCN1C(=O)C1CN(C(=O)C1)C1=C(F)C=CC=C1]
IC50 [1]: 2.44 µM

CC1CCN(c2nc(CN3CCOCC3)nc3scc(-c4cccs4)c23)CC1 [T5932815, CC1CCN(CC1)C1=C2C(SC=C2C2=CC=CS2)=NC(CN2CCOCC2)=N1]
IC50 [1]: 2 µM

Cc1cccn2c(=O)cc(CN3CC(C(=O)N4CCCCC4)Oc4ccccc43)nc12 (stereo not drawn) [T5615894, CC1=CC=CN2C(=O)C=C(CN3CC(OC4=C3C=CC=C4)C(=O)N3CCCCC3)N=C12]
IC50 [1]: 2.93 µM

Cc1cc(Cl)c(C)c(S(=O)(=O)NCCCN2CCCC2=O)c1Cl [T6312190, CC1=C(Cl)C(=C(C)C(Cl)=C1)S(=O)(=O)NCCCN1CCCC1=O]
IC50 [1]: 2.02 µM

N#Cc1ccccc1S(=O)(=O)N1CCN(Cc2ccc(-c3ccccc3)cc2)CC1 [T5432718, O=S(=O)(N1CCN(CC2=CC=C(C=C2)C2=CC=CC=C2)CC1)C1=C(C=CC=C1)C#N]
IC50 [1]: 6.33 µM

O=C(CNc1ccccc1-c1ccccc1)Nc1ccccc1Cl [T5943324, ClC1=C(NC(=O)CNC2=C(C=CC=C2)C2=CC=CC=C2)C=CC=C1]
IC50 [1]: 7.79 µM

CC(C)CCn1cnc2c1c(=O)n(CC(=O)NC1CC1)c(=O)n2Cc1ccccc1 [T5351795, CC(C)CCN1C=NC2=C1C(=O)N(CC(=O)NC1CC1)C(=O)N2CC1=CC=CC=C1]
IC50 [1]: 4.64 µM
